Reference: US6316423A, “Method of treating ischemic, hypoxic and anoxic brain damage” (priority 1999, dated 2001)
Entries after “also recorded” stand apart in the source; their conditions may differ.

Assays:
[1] = Open field locomotor activity in nonischemic gerbils; type: in vivo, gerbil; settings: 0.1 mg/kg (100 μg/kg)
[2] = system: gerbils exposed to 10 minutes of brain ischemia; assay: Mortality after 10 min ischemia, preischemic ADAC; type: in vivo, gerbil; settings: 0.1 mg/kg preischemic, entire monitoring period (14 days); control 60%
Protocol: Seven control animals out of 20 (35%) died during the initial 12 hour period following 10 minutes of ischemia. Three additional control gerbils died between day 1 and 3, and 2 additional animals died 5-8 hours following a water maze trial by day 14. Thus, the overall death rate of the control group was 60%. In contrast, in the ADAC-treated group only 2 animals out of 10 died (20%) during the entire monitoring period, one on day 3 and one on day 6.
(§1) Prior to subjecting the gerbils to 10 minutes of ischemia, the gerbils were randomly divided into the control and the drug testing groups. […] During post-ischemic recovery, animals were monitored each day for signs of functional damage (e.g., pareses) that might affect their subsequent water maze performance. Postischemic mortality was also monitored every day.

[3] = system: gerbils subjected to 10 minutes of ischemia; assay: Open field locomotor activity 7 days after ischemia; type: in vivo, gerbil; settings: preischemic ADAC, 10 minute period, control 235±3 cm, P<0.001
Protocol: as §1
Since locomotor hyperactivation may result in a spurious improvement of performance in the water maze (von Lubitz et al., 1993, supra), open field activity of all gerbils was assessed 7 days after the occlusion (i.e., one day prior to the water maze experiments). During locomotor testing, horizontal displacement of each gerbil was monitored in 2 minute epochs for 10 minutes using a Digiscan activity monitor (available from Omnitech Electronics, Colombus, Ohio).

[4] = system: gerbils subjected to 10 minutes of ischemia; assay: Postischemic Morris water maze test (spatial memory); type: in vivo, gerbil
Protocol: The Morris water maze (Morris et al., supra) is now considered the most direct means of assessing post-ischemic memory and learning of spatially oriented tasks (Corbett et al., Neuroreport, 3, 204 (1992)). This test is well known in the art and the specific parameters of this test as used herein are defined below. Female gerbils (Tumblebrook Farms, Mass.) weighing 70 g were used in the study. Prior to inclusion in the experiments, animals were tested for susceptibility to spontaneous seizures using the method described by Lee et al., Neuropharmacol., 5, 517 (1984). Seizure-prone gerbils were rejected.
The details of the water maze are known in the art (von Lubitz et al., 1993 supra). Briefly, the system consists of a tank (1 m diameter) which is filled with opaque water to a depth of 30 cm. The tank contains a colorless target platform (15 cm diameter) submerged to a depth of 1.5 cm and placed in the center of the north-west quadrant. […]
as §1

[5] = system: cortex, hippocampal CA1 sector, and striatum; assay: Nissl histology of neuronal loss, preischemic ADAC; type: in vivo, gerbil; settings: two weeks after ischemia
Protocol: The gerbils of Example 3 were subjected to examination procedures subsequent to the water maze tests described in Example 3. One day after the last postischemic water maze trial, all animals were heavily anesthetized with Nembutal and perfused through the aorta with buffered (pH 7.4) formaldehyde. Frozen sections of the brains were made as described previously (Lin et al., supra). The sections were stained using the method of Nissl, and the extent of the neuronal loss was determined in the cortex, hippocampal CA1 sector, and striatum following the published protocol of von Lubitz et al. (von Lubitz, 1992, supra; von Lubitz, 1994, supra).

[6] = target: Rat A2 adenosine receptor; assay: Affinity for A2 adenosine receptor isolated from rats; type: binding; settings: rat A2 adenosine receptors; read-out: Ki for Rat A2 Receptors (printed K1)
Excerpt: Table 3 below indicates the structure and Ki values for these compounds. Thus, each of these compounds is expected to find utility in the context of the present invention. The five analogues indicated within Table 3 are given for the purposes of illustrating the nature of ADAC-analogues and is not meant to be comprehensive. Additionally, these compounds can be synthesized using a similar approach as the one employed for ADAC. These methods are known in the art. For example, the synthesis of these compounds can be guided by U.S. Pat. No. 5,248,770 or by Jacobson et al., Journal of Medicinal Chemistry, 28, 1341-1346 (1985).

brain ischemia = assay: Comparison of effective neuroprotective concentrations with other A1 agonists; type: in vivo, gerbil; settings: vs other A1 adenosine receptor agonists examined thus far

With `NCCNC(=O)Cc1ccc(NC(=O)Cc2ccc(Nc3ncnc4c3ncn4[C@@H]3O[C@H](CO)[C@@H](O)[C@H]3O)cc2)cc1` [ADAC] as the compound, how does the “behavioral changes by open field locomotor activity testing” value [1] read?
The value was “does not induce behavioral changes; also recorded: did not induce any behavioral changes”.

And the death rate [2]?
Its death rate is 20%.

What about the “open field activity (horizontal displacement)” value [3] of the same compound?
The value was 135±6 cm.

What about the “preference for target quadrant in postischemic probe trial” value ([4]; FIG. 2, controls lost all preference) of the same compound?
The value was “retained a high preference for the target quadrant”.

And the “recovery of postischemic water maze performance” value ([4]; preischemic ADAC, FIG. 1)?
Its value is “regained water maze performance levels that mirrored the plateau level obtained in preischemic training almost immediately (trial 2, day 9)”.

And the “hippocampal CA1 neurons surviving” value ([5]; control 23%)?
The value was 81%.

What about the “neuronal loss in cortex and striatum” value ([5]; control 83% (cortex) and 25% (striatum) surviving) of the same compound?
Its value is “complete elimination of neuronal loss”.

And the Ki [6]?
The Ki was 210 nM.

And the “level of efficacy versus other A1 adenosine receptor agonists” value (brain ischemia)?
The value was “about an order of magnitude better”.
